Experimental data as given in patent US7351861B2 (priority 2002, dated 2008).
Read-outs that look alike come from different tables or passages of the source.

Test system: luciferase light signal from pIB29EL (yopE-luxAB)
Experiment: microbe, parasite or virus in culture
Assay type: cell-based, Yersinia pseudotuberculosis
Conditions: for IC50: read-out: IC50 (concentration resulting in 50% reduction of luciferase light emission); for inhibition at 5 µM: read-out: Inhibition (%) of the luciferase light signal, 5 μM; for inhibition at 10 µM: read-out: Inhibition (%) of the luciferase light signal, 10 μM; for inhibition at 20 µM: read-out: Inhibition (%) of the luciferase light signal, 20 μM; for inhibition at 50 µM: read-out: Inhibition (%) of the luciferase light signal, 50 μM; for inhibition at 100 µM: read-out: Inhibition (%) of the luciferase light signal, 100 μM
[1] = 10 μM, strain pIB29EL, Table 2C
[2] = 20 μM, strain pIB29EL, Table 2C
[3] = 50 μM, strain pIB29EL, Table 2C
[4] = 100 μM, strain pIB29EL, Table 2C
[5] = Yersinia pseudotuberculosis, strain pIB29EL, Table 2C

Compound | Inhibition (%) of the luciferase light signal (5 μM, strain pIB29EL, Table 2C) | Inhibition (%) of the luciferase light signal [1] | Inhibition (%) of the luciferase light signal [2] | Inhibition (%) of the luciferase light signal [3] | Inhibition (%) of the luciferase light signal [4] | inhibition at 10 µM [5] | inhibition at 20 µM [5] | inhibition at 50 µM [5] | inhibition at 100 µM [5] | other results
[H]/N=C(/N)N[C@H]1[C@H](O)[C@@H](O)[C@H](O[C@@H]2O[C@@H](C)[C@](O)(C=O)[C@H]2O[C@@H]2O[C@@H](CO)[C@H](O)[C@@H](O)[C@@H]2NC)[C@@H](N/C(N)=N\[H])[C@@H]1O [Streptomycin, reference compound] |  |  |  |  |  |  |  |  |  | IC50 (Yersinia pseudotuberculosis): 4 µM; Inhibition of light-emission (in words) (known antibiotics, pIB29EL): dose-dependent inhibition of light-emission
NC(=O)C(=O)N/N=C/c1cc(Br)cc(Br)c1O [Compound 61] | 7% | 9% | 19% | 32% | 55% |  |  |  |  | 
CC(=O)Oc1c(I)cc(I)cc1C(=O)Nc1ccc(SC(F)(F)F)cc1 [Compound 33] |  |  |  |  |  | 70% | 68% | 69% | 71% | inhibition at 5 µM [5]: 71%
CC(=O)Oc1c(Br)cc(Br)cc1C(=O)Nc1ccccc1F [Compound 19] |  |  |  |  |  |  |  |  |  | Inhibition (%) of the luciferase light signal (10 μM, pIB29EL, Table 2A): 0%; Inhibition (%) of the luciferase light signal (20 μM, pIB29EL, Table 2A): 0%; Inhibition (%) of the luciferase light signal (50 μM, pIB29EL, Table 2A): 45%; Inhibition (%) of the luciferase light signal (100 μM, pIB29EL, Table 2A): 70%
O=C(Nc1ccc(Br)cc1)c1cc(I)ccc1O [Compound 50] | 57% | 69% | 62% | 72% | 70% |  |  |  |  | 
Polymixin B [reference compound] |  |  |  |  |  |  |  |  |  | Inhibition of light-emission (in words): dose-dependent inhibition of light-emission; IC50: 0.15 µM
CC(=O)Oc1c(I)cc(I)cc1C(=O)Nc1ccc(F)cc1 [Compound 17] |  |  |  |  |  |  |  |  |  | Inhibition (%) of the luciferase light signal (10 μM, pIB29EL, Table 2A): 36%; Inhibition (%) of the luciferase light signal (20 μM, pIB29EL, Table 2A): 42%; Inhibition (%) of the luciferase light signal (50 μM, pIB29EL, Table 2A): 89%; Inhibition (%) of the luciferase light signal (100 μM, pIB29EL, Table 2A): 90%
O=C(COc1ccccc1)N/N=C/c1c(O)ccc2ccccc12 [Compound 20] |  |  |  |  |  | 2% | 5% | 19% | 48% | 
O=C(Nc1ccc(Cl)cc1)c1cc(I)cc(I)c1O [Compound 25] |  |  |  |  |  | 92% | 93% | 100% | 98% | inhibition at 5 µM [5]: 80%
CCCCCCCc1ccc(NC(=O)c2cc(I)cc(I)c2O)cc1 [Compound 28] |  |  |  |  |  | 90% | 99% | 99% | 99% | inhibition at 5 µM [5]: 67%
CC(=O)Oc1ccccc1C(=O)Nc1ccc(Cl)cc1 [Compound 60] | 0% | 21% | 65% | 89% | 89% |  |  |  |  | 
O=C(Nc1ccc(Cl)cc1)c1cc(I)ccc1O [Compound 23] | 70% | 75% | 83% | 80% | 78% |  |  |  |  | 
CC1(C)S[C@@H]2[C@H](NC(=O)C(C(=O)O)c3ccccc3)C(=O)N2[C@H]1C(=O)O (stereo partly shown) [Carbenicillin, reference compound] |  |  |  |  |  |  |  |  |  | IC50 (Yersinia pseudotuberculosis): 15 µM; Inhibition of light-emission (in words) (known antibiotics, pIB29EL): dose-dependent inhibition of light-emission
O=C(Nc1ccccc1F)c1cc(Br)cc(Br)c1O [Compound 27] |  |  |  |  |  | 3% | 1% | 13% | 20% | inhibition at 5 µM [5]: 9%
O=C(N/N=C/c1ccc(O)cc1O)c1cc2ccccc2cc1O [Compound 13] |  |  |  |  |  |  |  |  |  | Inhibition (%) of the luciferase light signal (10 μM, pIB29EL, Table 2A): 26%; Inhibition (%) of the luciferase light signal (20 μM, pIB29EL, Table 2A): 47%; Inhibition (%) of the luciferase light signal (50 μM, pIB29EL, Table 2A): 69%; Inhibition (%) of the luciferase light signal (100 μM, pIB29EL, Table 2A): 73%
O=C(Nc1ccc([N+](=O)[O-])cc1Cl)c1cc(Cl)ccc1O [Compound 55] | 85% | 96% | 96% | 94% | 94% |  |  |  |  | 
O=C(Nc1ccc(SC(F)(F)F)cc1)c1cc(I)cc(I)c1O [Compound 26] |  |  |  |  |  | 15% | 41% | 84% | 93% | inhibition at 5 µM [5]: 15%
O=C(Nc1ccc(Cl)cc1)c1ccccc1O [Compound 24] |  |  |  |  |  | 30% | 73% | 90% | 88% | inhibition at 5 µM [5]: 7%

Compound | Inhibition (%) of the luciferase light signal (5 μM, strain pIB29EL, Table 2C) | Inhibition (%) of the luciferase light signal [1] | Inhibition (%) of the luciferase light signal [2] | Inhibition (%) of the luciferase light signal [3] | Inhibition (%) of the luciferase light signal [4] | inhibition at 10 µM [5] | inhibition at 20 µM [5] | inhibition at 50 µM [5] | inhibition at 100 µM [5] | other results
O=C(N/N=C/c1cc(O)ccc1O)c1ccco1 [Compound 12] |  |  |  |  |  |  |  |  |  | Inhibition (%) of the luciferase light signal (10 μM, pIB29EL, Table 2A): 12%; Inhibition (%) of the luciferase light signal (20 μM, pIB29EL, Table 2A): 16%; Inhibition (%) of the luciferase light signal (50 μM, pIB29EL, Table 2A): 41%; Inhibition (%) of the luciferase light signal (100 μM, pIB29EL, Table 2A): 65%
O=C(Nc1cc(Cl)ccc1F)c1cc(I)cc(I)c1O [Compound 48] | 36% | 75% | 88% | 89% | 88% |  |  |  |  | 
CC(=O)Oc1ccc(I)cc1C(=O)Nc1ccc(Cl)cc1 [Compound 62] | 95% | 92% | 91% | 91% | 90% |  |  |  |  | 
CC(=O)Oc1c(I)cc(I)cc1C(=O)Nc1cc(Cl)ccc1F [Compound 49] | 24% | 34% | 63% | 89% | 88% |  |  |  |  | 
CCn1cc(C(=O)O)c(=O)c2ccc(C)nc21 [Nalidixic acid, reference compound] |  |  |  |  |  |  |  |  |  | IC50 (Yersinia pseudotuberculosis): 15 µM; Inhibition of light-emission (in words) (known antibiotics, pIB29EL): dose-dependent inhibition of light-emission
O=C(Nc1ccc(Cl)c(Cl)c1)c1ccccc1NS(=O)(=O)c1cccc2nsnc12 [Compound 59] | 0% | 0% | 0% | 7% | 10% |  |  |  |  | 
CC(C)(C)c1ccc(NC(=O)c2cc(I)cc(I)c2O)cc1 [Compound 29] |  |  |  |  |  | 18% | 21% | 30% | 28% | inhibition at 5 µM [5]: 19%
CC(=O)Oc1ccc(I)cc1C(=O)Nc1ccc(Br)cc1 [Compound 51] | 91% | 87% | 89% | 87% | 85% |  |  |  |  | 
O=C(Nc1ccc(SC(F)(F)F)cc1)c1cc2cc(Br)ccc2c(Br)c1O [Compound 53] | 11% | 38% | 43% | 58% | 68% |  |  |  |  | 
CC(=O)Oc1ccc(Cl)cc1C(=O)Nc1ccc([N+](=O)[O-])cc1Cl [Compound 56] | 77% | 90% | 91% | 91% | 90% |  |  |  |  | 
O=C(N/N=C/c1cc(Br)cc(Br)c1O)c1cccnc1 [Compound 7] |  |  |  |  |  |  |  |  |  | Inhibition (%) of the luciferase light signal (10 μM, pIB29EL, Table 2A): 25%; Inhibition (%) of the luciferase light signal (20 μM, pIB29EL, Table 2A): 20%; Inhibition (%) of the luciferase light signal (50 μM, pIB29EL, Table 2A): 68%; Inhibition (%) of the luciferase light signal (100 μM, pIB29EL, Table 2A): 93%
CC(=O)Oc1cc(C)ccc1C(=O)Nc1ccccc1F [Compound 30] |  |  |  |  |  | 15% | 35% | 63% | 83% | inhibition at 5 µM [5]: 14%
O=C(Nc1ccc(Cl)cc1)c1ccccc1NS(=O)(=O)c1cccc2nsnc12 [Compound 58] | 4% | 5% | 10% | 11% | 15% |  |  |  |  | 
C/C(=N\NC(=O)c1ccc([N+](=O)[O-])cc1)c1cc(Br)cc(Br)c1O [Compound 21] |  |  |  |  |  | 21% | 18% | 44% | 57% | 
CC(=O)Oc1c(I)cc(I)cc1C(=O)Nc1ccccc1 [Compound 18] |  |  |  |  |  |  |  |  |  | Inhibition (%) of the luciferase light signal (10 μM, pIB29EL, Table 2A): 11%; Inhibition (%) of the luciferase light signal (20 μM, pIB29EL, Table 2A): 51%; Inhibition (%) of the luciferase light signal (50 μM, pIB29EL, Table 2A): 70%; Inhibition (%) of the luciferase light signal (100 μM, pIB29EL, Table 2A): 62%
CC(C)(C)c1ccc(NC(=O)c2c(O)c(Cl)cc(Cl)c2Cl)cc1 [Compound 32] |  |  |  |  |  | 23% | 37% | 42% | 46% | inhibition at 5 µM [5]: 14%
CC(=O)Oc1ccc(I)cc1C(=O)Nc1ccc(Cl)cc1 [Compound 16] |  |  |  |  |  |  |  |  |  | Inhibition (%) of the luciferase light signal (5 μM (first of two columns headed 5), pIB29EL, Table 2B): 65%; Inhibition (%) of the luciferase light signal (5 μM (second of two columns headed 5), pIB29EL, Table 2B): 97%; Inhibition (%) of the luciferase light signal (10 μM, pIB29EL, Table 2B): 98%; Inhibition (%) of the luciferase light signal (20 μM, pIB29EL, Table 2B): 97%
